The test system of assay [1] is Radical scavenging activity. Put plainly: Antioxidant activity assessed as DPPH radical scavenging activity. The format is functional. (Loss of DPPH colour is used to gauge radical scavenging.)
The target in assay [2] is Xanthine dehydrogenase/oxidase (Homo sapiens, UniProt P47989). In words: Inhibition of Xanthine oxidase.
Assay [3] is described as follows: Antioxidant activity assessed as inhibition of xanthine-xanthine oxidase generated superoxide anion radical production. The format is functional.
In the next assay the test system is MOLT-3. Put plainly: Cytotoxicity against human MOLT3 cells by XTT assay. The format is functional, cell-based.
The test system of a further assay is HepG2. In words: Cytotoxicity against human HepG2 cells by MTT assay. Type of assay: functional, cell-based.
The test system of the next assay is HL-60. Put plainly: Antioxidant activity in human HL60 cells assessed as inhibition of TPA-induced superoxide anion radical production. The format is functional, cell-based.
The next assay has as its target T1, Aromatase (Homo sapiens, UniProt P11511).
T1 sequence (P11511 whole entry): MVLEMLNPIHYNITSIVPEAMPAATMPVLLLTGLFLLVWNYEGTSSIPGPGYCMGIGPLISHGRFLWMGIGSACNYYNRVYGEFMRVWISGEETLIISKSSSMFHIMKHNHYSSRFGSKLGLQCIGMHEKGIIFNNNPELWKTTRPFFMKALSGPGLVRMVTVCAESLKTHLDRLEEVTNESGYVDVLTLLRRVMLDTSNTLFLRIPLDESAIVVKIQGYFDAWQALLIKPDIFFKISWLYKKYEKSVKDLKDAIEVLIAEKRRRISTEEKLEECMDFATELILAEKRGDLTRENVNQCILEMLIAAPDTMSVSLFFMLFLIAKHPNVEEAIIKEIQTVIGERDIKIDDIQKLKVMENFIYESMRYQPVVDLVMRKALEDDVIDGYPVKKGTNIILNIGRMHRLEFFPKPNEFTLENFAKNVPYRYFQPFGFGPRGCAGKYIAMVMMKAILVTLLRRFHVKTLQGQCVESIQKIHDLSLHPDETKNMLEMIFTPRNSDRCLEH
Put plainly: Inhibition of CYP19.

The nature of assay [4]: Cytotoxicity against human HuCCA1 cells by MTT assay. The format is functional, cell-based. The settings on record: HuCC-A1. In general terms: Formazan colour is commonly taken as a measure of viable cells.
Another assay relates to A549. In words: Cytotoxicity against human A549 cells by MTT assay. Type of assay: functional, cell-based.

Sequence of Xanthine dehydrogenase/oxidase (P47989 whole entry): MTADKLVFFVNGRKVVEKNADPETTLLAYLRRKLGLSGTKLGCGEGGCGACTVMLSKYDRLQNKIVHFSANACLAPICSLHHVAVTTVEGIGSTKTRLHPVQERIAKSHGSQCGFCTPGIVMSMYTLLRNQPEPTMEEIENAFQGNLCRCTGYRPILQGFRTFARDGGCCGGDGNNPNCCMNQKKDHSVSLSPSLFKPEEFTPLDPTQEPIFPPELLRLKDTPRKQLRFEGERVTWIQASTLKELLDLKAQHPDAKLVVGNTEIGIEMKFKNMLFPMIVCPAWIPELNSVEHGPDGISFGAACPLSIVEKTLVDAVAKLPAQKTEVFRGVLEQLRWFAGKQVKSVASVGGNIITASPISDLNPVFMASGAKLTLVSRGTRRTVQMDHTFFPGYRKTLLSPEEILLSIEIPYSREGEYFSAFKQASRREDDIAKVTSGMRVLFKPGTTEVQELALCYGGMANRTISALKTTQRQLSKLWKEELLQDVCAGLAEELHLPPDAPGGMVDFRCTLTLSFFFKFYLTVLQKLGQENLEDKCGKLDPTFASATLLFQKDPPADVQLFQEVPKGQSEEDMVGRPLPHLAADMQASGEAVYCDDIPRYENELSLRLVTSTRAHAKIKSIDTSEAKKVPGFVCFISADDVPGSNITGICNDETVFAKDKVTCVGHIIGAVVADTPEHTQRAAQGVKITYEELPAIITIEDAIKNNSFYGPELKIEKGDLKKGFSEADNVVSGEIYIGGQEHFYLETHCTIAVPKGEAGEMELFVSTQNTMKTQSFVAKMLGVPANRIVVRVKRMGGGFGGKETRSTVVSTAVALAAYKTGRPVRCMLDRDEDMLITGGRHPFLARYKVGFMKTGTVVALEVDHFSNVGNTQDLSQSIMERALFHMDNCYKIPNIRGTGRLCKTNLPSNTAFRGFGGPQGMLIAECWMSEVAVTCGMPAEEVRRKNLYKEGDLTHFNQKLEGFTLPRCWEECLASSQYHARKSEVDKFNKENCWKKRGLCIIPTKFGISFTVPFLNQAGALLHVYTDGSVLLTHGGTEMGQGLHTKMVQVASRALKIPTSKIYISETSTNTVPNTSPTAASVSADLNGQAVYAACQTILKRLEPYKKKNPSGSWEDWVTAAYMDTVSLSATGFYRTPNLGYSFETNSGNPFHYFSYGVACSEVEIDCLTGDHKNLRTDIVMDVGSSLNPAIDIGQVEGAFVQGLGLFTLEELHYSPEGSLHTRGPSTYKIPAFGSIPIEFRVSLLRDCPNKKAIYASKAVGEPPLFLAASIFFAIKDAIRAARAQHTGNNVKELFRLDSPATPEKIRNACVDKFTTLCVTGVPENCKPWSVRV

The term IC50 denotes the concentration that inhibits the measured activity by half. As to `CCC[C@H]1C[C@H]2OC(=O)c3c(cc(OC)c(O)c3O)[C@H]2O1`, the IC50 in assay [1] is 23.4 µM; in [2], over 679 µM; in [3], 52.6 µM; in the assay on MOLT-3 it was 124 µM; with HepG2, 23.7 µM; in the assay on HL-60, over 136 µM. The IC50 was over 16.9 µM on Aromatase, over 170 µM in assay [4] and over 170 µM in the assay with A549.

Consider `CCC[C@@H](O)C[C@H]1OC(=O)c2c(cc(OC)c(OC)c2O)[C@H]1O`, for which the IC50 in assay [1] was over 306 µM; in assay [2], over 612 µM; in [3] it was 352 µM; in the assay with MOLT-3, over 153 µM; in the assay on HL-60 it was over 122 µM; against Aromatase, over 15.3 µM.

For the compound `Oc1ncnc2[nH]ncc12` [ALLOPURINOL], the IC50 in [3] came out at 3 µM.

For `O=C1O[C@H]([C@@H](O)CO)C(O)=C1O` [ASCORBIC ACID], the IC50 in assay [1] worked out at 21.2 µM.

On to `CCCC(=O)CC[C@H]1OC(=O)c2c1cc(OC)c(OC)c2O` [COLLETOTRIALIDE], for which the IC50 is over 324 µM in assay [1]; over 648 µM in assay [2]; 148 µM with MOLT-3; over 162 µM in the assay on HepG2; over 130 µM with HL-60; over 16.2 µM against Aromatase. Besides, the half-inhibitory concentration (IC50) (in [4]; in the assay on A549) was over 162 µM each time.

Take `COc1cccc2c1C(=O)c1c(O)c3c(c(O)c1C2=O)C[C@@](O)(C(=O)CO)C[C@@H]3O[C@H]1C[C@H](N)[C@H](O)[C@H](C)O1` [DOXORUBICIN]: the IC50 with HepG2 amounted to 0.29 µM; in assay [4], 0.67 µM; with A549, 0.34 µM.

For the compound `COc1cc([C@@H]2c3cc4c(cc3[C@@H](O[C@@H]3O[C@@H]5CO[C@@H](C)O[C@H]5[C@H](O)[C@H]3O)[C@H]3COC(=O)[C@H]23)OCO4)cc(OC)c1O` [ETOPOSIDE], the IC50 turned out to be 0.03 µM with MOLT-3 and 15.8 µM in the assay on HepG2.

Regarding `CCC[C@H](O)C[C@@H]1Cc2cc(OC)c(OC)c(O)c2C(=O)O1` [FUSARENTIN 6,7-DIMETHYLETHER], the IC50 was over 322 µM in assay [1]; over 644 µM in assay [2]; 115 µM in the assay on MOLT-3; 121 µM in the assay on HepG2; over 128 µM in the assay with HL-60; over 16.1 µM against Aromatase. Besides, the IC50 (in [4]; in the assay on A549) was over 161 µM each time.

Turning to `CCC[C@H](O)C[C@@H]1Cc2cc(OC)c(O)c(O)c2C(=O)O1` [FUSARENTIN 6-METHYL ETHER], the IC50 is 16.4 µM in [1]; over 675 µM in assay [2]; 4.3 µM in [3]; over 169 µM in the assay with MOLT-3; over 135 µM with HL-60; over 16.8 µM against Aromatase.

In the case of `CCC[C@H]1C[C@H]2OC(=O)c3c(cc(OC)c(OC)c3O)[C@H]2O1` [MONOCERIN], the IC50 in [1] was over 324 µM; in [2], over 648 µM; in assay [3], over 648 µM; with MOLT-3, 153 µM; in the assay with HepG2 it was over 162 µM; with HL-60, over 130 µM. Moreover, the values for the IC50 (at Aromatase; in [4]; in the assay with A549) were over 16.2 µM, over 162 µM and over 162 µM, respectively.

The record behind these values is ChEMBL document CHEMBL1667722, “Radical scavenging and antioxidant activities of isocoumarins and a phthalide from the endophytic fungus Colletotrichum sp” (J Nat Prod, 2011).
